Experimental data published in patent US20090317376A1, “Compositions And Methods For Lipo Modeling” (Georgetown University MEDICAL SCHOOL, priority 2005, published 2009).
“Also recorded” adds a separate entry of the source.

Test: Glucose tolerance test
Type: in vivo, mice
Conditions: for response to glucose challenge / glucose intolerance: WT mice exposed to stress and high-fat diet, FIG. 18A
Protocol: Glucose tolerance test: After an overnight 17 h fast, unanesthetized mice are injected i.p. with a dose of 1.5 g of 50% glucose solution per kg of body weight. Blood samples are obtained from the tail vein 30 min prior to the glucose challenge and then again at 0, 30, 60, 90 min after the glucose challenge. Blood glucose concentrations are measured with an Elite XL (Bayer) portable glucose meter.
1. Cell culture: 3T3-L1 preadipocyte cells, (gift from Dr. Lane,^34) were cultured in DMEM high glucose media with glutamine, 10% calf sera (Gemini Bioproducts), d-Biotin (8 μg/ml) and Pantothenate (8 μg/ml) (Sigma). SK-N-BE(2) neuroblastoma cells (ATCC) were cultured in EMEM/F12K with 10% fetal bovine sera (FBS). HMVEC endothelial cells (Cambrex) were cultured in endothelial cell growth media (Cambrex). All media was supplemented with 100 units/ml penicillin, 100 μg/ml streptomycin and […] amphotericin. 2. Proliferation assay: Cells were plated onto 96-well dishes, growth-arrested in serum-free media for 24 h, and then were treated with the desired factors for 24 h in the culture media supplemented with 0.25% FBS; 4 hr after treatment 0.5 μCi [^3H] thymidine was added to each well. After 24 h, cells were harvested in a 96-well harvester (Tomtec) and counted in a Betaplate Liquid Scintillation Counter (Wallac). 3. Co-culture: For mitogenic assay and expression studies, co-culture was performed in a Costar Transwell system. Cells were plated on 6-well plates or inserts with 0.4 μm Polyester membranes. At 30% confluence, the inserts were combined with wells containing other cells. […] After 48 hr, the cells were counted with a Beckman Coulter Counter. […] The results were analyzed using software provided by BioRad and expression levels calculated by the comparative CT method using β-actin as an endogenous reference gene, according to the Applied Biosystems' ABI PRISM 7700 User Bulletin #2. […] The density of TUNEL positive cells will be measured using NIH ImageJ software (using a plugin written by Wayne Rasband). […]

N=C(N)NCCC[C@H](NC(=O)CC1(CC(=O)N2CCN(C3c4ccccc4NC(=O)c4ccccc43)CC2)CCCC1)C(=O)NCCn1c(=O)n(-c2ccccc2)n(-c2ccccc2)c1=O (stereo partly drawn) [BIIE0246]
response to glucose challenge / glucose intolerance (listed as Y2R antagonist): resolved | response to glucose challenge / glucose intolerance (listed as Y2 antagonist): normalized glucose intolerance | response to glucose challenge (ob/ob mice, FIG. 18B, listed as Y2R antagonist): near normal response to the challenge; also recorded: resolved
